Laboratory results reported in patent US20080269293A1, “PYRAZOLE DERIVATIVES AS ANTI-PLATELET AND ANTI-THROMBOTIC AGENTS” (Pfizer Inc., priority 2006, published 2008).

Biological target: T1, platelet P2Y1 receptor (Homo sapiens, UniProt P47900)
T1 construct: expressed in transfected cells
Test: P2Y1 receptor binding assay ([β-33P]-2-thiomethyl ADP)
Settings: binding of 0.3 nM [β-33P]-2-thiomethyl ADP, hP2Y1 expressing 132N1 cell membrane, 25° C., 60 minutes

T1 sequence (P47900 whole entry): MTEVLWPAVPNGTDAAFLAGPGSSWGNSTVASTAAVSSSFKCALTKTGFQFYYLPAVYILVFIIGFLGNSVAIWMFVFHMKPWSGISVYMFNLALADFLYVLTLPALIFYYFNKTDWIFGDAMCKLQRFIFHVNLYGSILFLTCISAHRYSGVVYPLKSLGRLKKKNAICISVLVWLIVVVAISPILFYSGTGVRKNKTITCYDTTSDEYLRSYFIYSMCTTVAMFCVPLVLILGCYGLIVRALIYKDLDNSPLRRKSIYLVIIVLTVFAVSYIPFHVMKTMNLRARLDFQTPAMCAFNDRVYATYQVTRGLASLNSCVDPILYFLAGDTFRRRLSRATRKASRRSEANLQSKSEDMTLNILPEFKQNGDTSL

IC50	SMILES
1.19 µM	CCc1ccccc1-n1nc(C)cc1Oc1ccccc1NC(=O)Nc1ccc(-c2cnco2)cc1 [Example 102, 1-(2-(1-(2-ethylphenyl)-3-methyl-1H-pyrazol-5-yloxy)phenyl)-3-(4-(oxazol-5-yl)phenyl)urea]
0.149 µM	Cc1cc(Oc2ccccc2NC(=O)Nc2ccc(OC(F)(F)F)cc2)n(-c2cccc(Cl)c2F)n1 [Example 88, 1-{2-[2-(3-Chloro-2-fluoro-phenyl)-5-methyl-2H-pyrazol-3-yloxy]-phenyl}-3-(4-trifluoromethoxy-phenyl)-urea]
